{"source": "paper PMC3769965", "about": "(Biochemistry, 2013)", "biological_target": "Eis_Msm (Mycolicibacterium smegmatis, UniProt A0QY29)", "experiment": "DTNB initial rate", "type": "biochemical", "settings": "AcCoA, 50 mM Tris-HCl pH 8.0", "data": [{"compound": "NC[C@@H]1O[C@H](O[C@H]2[C@@H](O)[C@H](O[C@@H]3[C@@H](O)[C@H](N)C[C@H](N)[C@H]3O[C@H]3O[C@H](CO)[C@@H](O)[C@H](O)[C@H]3N)O[C@@H]2CO)[C@H](N)[C@@H](O)[C@@H]1O", "note": "[PAR, paromomycin]", "values": [{"measurement": "DTNB initial rate (CoA release); LCMS of tri-acetylation", "result": "with Eis_Mtb, Eis_Msm, and all Eis_Mtb-mutants, PAR was always tri-acetylated"}]}]}
